Results reported in patent US9023865B2, “Compounds that are ERK inhibitors” (Merck Sharp & Dohme Corp., priority 2011, dated 2015).

target: Active Human ERK2 (hERK2) (Homo sapiens (Human), UniProt P28482); assay: Active Human ERK2 (hERK2) Activity Assay (IMAP-FP); format: biochemical; settings: phosphorylated active hERK2, 30 μM ATP; average; read-out: ERK 2 Human average IC50
Procedure, shortened: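 Reaction contains 0.5 nM activated hERK2, 900 nM unlabeled plus 80 nM labeled peptide and 30 μM ATP, run 60 min. Quenched with IMAP binding beads in buffer with 24 mM NaCl; fluorescence polarization read after 60 min binding equilibration.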

Active Human ERK2 (hERK2), sequence (P28482 whole entry): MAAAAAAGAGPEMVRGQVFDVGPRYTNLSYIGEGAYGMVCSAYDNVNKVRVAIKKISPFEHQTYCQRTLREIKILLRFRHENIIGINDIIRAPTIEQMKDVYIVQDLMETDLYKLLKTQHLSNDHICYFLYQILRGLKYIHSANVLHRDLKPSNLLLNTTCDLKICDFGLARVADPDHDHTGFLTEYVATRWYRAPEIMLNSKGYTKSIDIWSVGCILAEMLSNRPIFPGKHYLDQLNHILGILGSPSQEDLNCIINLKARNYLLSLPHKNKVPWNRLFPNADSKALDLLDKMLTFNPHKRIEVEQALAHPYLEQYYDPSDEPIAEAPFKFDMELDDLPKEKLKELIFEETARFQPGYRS

SMILES	IC50 [nM]
Cc1cc(-c2n[nH]c3cc(NC(=O)N[C@H](C)C4CCC4)ncc23)ccn1 [Example 595]	3.46
Cc1cc(-c2n[nH]c3cc(NC(=O)N[C@@H]4CCN(C)C4)ncc23)ccn1 [Example 596]	4.87
CO[C@@H](C)CNC(=O)Nc1cc2[nH]nc(-c3ccnc(C)c3)c2cn1 [Example 597]	0.945
CO[C@H](C)CNC(=O)Nc1cc2[nH]nc(-c3ccnc(C)c3)c2cn1 [Example 598]	1.55
COCc1n[nH]c2cc(NC(=O)N[C@H](C)c3ccccc3)ncc12 [Example 599]	7.68
COC[C@H](NC(=O)Nc1cc2[nH]nc(-c3cnn(C)c3)c2cn1)c1ccccc1 [Example 600, 1-[(1R)-2-methoxy-1-phenylethyl]-3-[3-(1-methyl-1H-pyrazol-4-yl)-1H-pyrazolo[4,3-c]pyridin-6-yl]urea]	31.9
COC[C@H](NC(=O)Nc1cc2[nH]nc(-c3ccnc(F)c3)c2cn1)c1ccccc1 [Example 601]	20.6
COCCNC(=O)Nc1cc2[nH]nc(-c3ccnc(OC(C)C)c3)c2cn1 [Example 604]	16.1
COC[C@@H](NC(=O)Nc1cc2[nH]nc(-c3ccnc(C4CC4)c3)c2cn1)c1ccccc1 [Example 605]	0.326
Cc1cc(-c2n[nH]c3cc(NC(=O)N[C@H](C)Cc4ccccc4)ncc23)ccn1 [Example 606]	3.42
COC[C@@H](NC(=O)Nc1cc2[nH]nc(-c3ccc(C#N)cc3)c2cn1)c1ccccc1 [Example 607]	0.335
CCNC(=O)Nc1cc2[nH]nc(-c3ccc(F)cc3)c2cn1 [Example 608]	3.81
O=C(Nc1cc2[nH]nc(-c3ccc(F)cc3)c2cn1)NC1CCOC1 (centres unmarked) [Example 609]	5.83
COCCNC(=O)Nc1ncc2c(-c3ccnc(C4CC4)c3)n[nH]c2c1F [Example 610]	3.12
C[C@@H](NC(=O)Nc1cc2[nH]nc(C(C)(C)O)c2cn1)c1ccccc1 [Example 611]	122
O=C(Nc1cc2[nH]nc(-c3ccc(F)cc3)c2cn1)NC1CCOC1 (centres unmarked) [Example 612]	12.6
COC[C@@H](NC(=O)Nc1cc2[nH]nc(-c3ccc4nn(C)cc4c3)c2cn1)c1ccccc1 [Example 613]	0.297
COC[C@@H](NC(=O)Nc1cc2[nH]nc(-c3ccc4cn(C)nc4c3)c2cn1)c1ccccc1 [Example 614]	0.481
C[C@@H](NC(=O)Nc1cc2[nH]nc(CO)c2cn1)c1ccccc1 [Example 615]	6.16

SMILES	IC50 [nM]
CCOCCNC(=O)Nc1cc2[nH]nc(-c3ccc(F)cc3)c2cn1 [Example 616]	0.61
CCOCCNC(=O)Nc1cc2[nH]nc(-c3ccnc(C)c3)c2cn1 [Example 617]	1.07
CC(O)c1n[nH]c2cc(NC(=O)N[C@H](C)c3ccccc3)ncc12 (some centres unmarked) [Example 618]	22.8
Cc1cc(-c2n[nH]c3cc(NC(=O)NCc4cccc(S(C)(=O)=O)c4)ncc23)ccn1 [Example 619]	0.159
CCOCc1n[nH]c2cc(NC(=O)N[C@H](C)c3ccccc3)ncc12 [Example 620, 1-[3-(ethoxymethyl)-1H-pyrazolo[4,3-c]pyridin-6-yl]-3-[(1R)-1-phenylethyl]urea]	138
Cc1cc(-c2n[nH]c3cc(NC(=O)NC[C@H](C)c4ccccc4)ncc23)ccn1 [Example 621]	1.29
Cc1cc(-c2n[nH]c3cc(NC(=O)NC[C@@H](C)c4ccccc4)ncc23)ccn1 [Example 622]	0.789
COCCNC(=O)Nc1cc2[nH]nc(-c3ccc(F)cc3)c2cn1 [Example 623, 1-[3-(4-Fluorophenyl)-1H-pyrazolo[4,3-c]pyridin-6-yl]-3-(2-methoxyethyl)urea]	1.93
COCCNC(=O)Nc1cc2[nH]nc(-c3ccc(C#N)cc3)c2cn1 [Example 624, 1-[3-(4-Cyanophenyl)-1H-pyrazolo[4,3-c]pyridin-6-yl]-3-(2-methoxyethyl)urea]	4.38
COCCNC(=O)Nc1cc2[nH]nc(-c3ccc4cn(C)nc4c3)c2cn1 [Example 625]	13.6
COCCNC(=O)Nc1cc2[nH]nc(-c3ccc4nn(C)cc4c3)c2cn1 [Example 626]	0.8
COCCNC(=O)Nc1cc2[nH]nc(-c3ccccc3)c2cn1 [Example 627]	6.09
COCCNC(=O)Nc1cc2[nH]nc(-c3ccnc(C4CC4)c3)c2cn1 [Example 629]	1.5
COCCNC(=O)Nc1cc2[nH]nc(-c3ccc(OC(C)C)nc3)c2cn1 [Example 630]	2.12
COCCNC(=O)Nc1cc2[nH]nc(-c3cc(C)nc(OC)c3)c2cn1 [Example 631]	17.4
CO[C@H](C)CNC(=O)Nc1cc2[nH]nc(-c3ccc(F)cc3)c2cn1 [Example 634]	1.3
CO[C@@H](C)CNC(=O)Nc1cc2[nH]nc(-c3ccc(F)cc3)c2cn1 [Example 635]	0.873
C[C@@H](NC(=O)Nc1cc2[nH]nc(-c3ccnc(F)c3)c2cn1)c1ccccc1 [Example 636]	0.251
C[C@@H](NC(=O)Nc1cc2[nH]nc(-c3ccn(C4COC4)n3)c2cn1)c1ccccc1 [Example 638]	8.99

SMILES	IC50 [nM]
C[C@@H](NC(=O)Nc1cc2[nH]nc(-c3cnn(CC(C)(C)O)c3)c2cn1)c1ccccc1 [Example 639]	0.535
C[C@@H](NC(=O)Nc1cc2[nH]nc(-c3cnoc3)c2cn1)c1ccccc1 [Example 640]	3.6
COC(=O)C1CC1c1n[nH]c2cc(NC(=O)N[C@H](C)c3ccccc3)ncc12 (some centres unmarked) [Example 641]	1100
COC(=O)C1CC1c1n[nH]c2cc(NC(=O)N[C@H](C)c3ccccc3)ncc12 (some centres unmarked) [Example 642]	327
COC(=O)C1CC1c1n[nH]c2cc(NC(=O)N[C@H](C)c3ccccc3)ncc12 (some centres unmarked) [Example 643]	1.33
COC(=O)C1CC1c1n[nH]c2cc(NC(=O)N[C@H](C)c3ccccc3)ncc12 (some centres unmarked) [Example 644]	1.07
C[C@@H](NC(=O)Nc1cc2[nH]nc(-c3ccnc(F)c3)c2cn1)c1ccc(F)cc1 [Example 645]	0.621
Cc1cc(-c2n[nH]c3cc(NC(=O)NC4CCCC(Oc5ccc(Cl)c(F)c5)C4)ncc23)ccn1 (centres unmarked) [Example 646]	373
C[C@@H](NC(=O)Nc1cc2[nH]nc(-c3cnn(C4COC4)c3)c2cn1)c1ccccc1 [Example 647]	0.464
Cc1cc(-c2n[nH]c3cc(NC(=O)NC4CCCC(Oc5cccc(F)c5)C4)ncc23)ccn1 (centres unmarked) [Example 648]	28.2
COc1cccc(F)c1CN1CCC[C@@H](NC(=O)Nc2cc3[nH]nc(-c4ccnc(F)c4)c3cn2)C1 [Example 649]	1.06
COc1ccc(-c2n[nH]c3cc(NC(=O)N[C@H](C)c4ccccc4)ncc23)cn1 [Example 650]	0.318
C[C@@H](NC(=O)Nc1cc2[nH]nc(-c3ccc4nn(C)cc4c3)c2cn1)c1ccccc1 [Example 651]	0.223
Cc1nc2ccc(-c3n[nH]c4cc(NC(=O)N[C@H](C)c5ccccc5)ncc34)cc2o1 [Example 652]	0.72
C[C@@H](NC(=O)Nc1cc2[nH]nc(C3CCCC3)c2cn1)c1ccccc1 [Example 653]	4.16
COc1cccc(F)c1CN1CCC[C@@H](NC(=O)Nc2cc3[nH]nc(-c4ccc(F)cc4)c3cn2)C1 [Example 654]	2.2
COc1cccc(F)c1CN1CCC[C@@H](NC(=O)Nc2cc3[nH]nc(-c4ccc(C#N)cc4)c3cn2)C1 [Example 655]	2.27
Cc1cc(-c2n[nH]c3cc(NC(=O)NC4CCCC(Oc5cccc(F)c5)C4)ncc23)ccn1 (centres unmarked) [Example 656]	5.06
